Experimental data published in the supplement of paper PMC8967900.

Columns and labels:
Experiment in all cases: selective drug sensitivity score (sDSS, relative to normal bone marrow) (sDSS (score)); higher = more potent and effective on the cell line relative to normal bone marrow cells
Conditions in all cases: 72 h
[1] = tested on: 697
[2] = tested on: ALL-PO
[3] = tested on: CCRF-HSB2
[4] = tested on: COG-LL-317
[5] = tested on: COG-LL-402h
[6] = tested on: DND-41
[7] = tested on: HAL-01
[8] = tested on: HPB-ALL
[9] = tested on: JURKAT
[10] = tested on: KARPAS-45
[11] = tested on: KASUMI-2
[12] = tested on: KASUMI-9
[13] = tested on: LC4-1
[14] = tested on: MOLT-4
[15] = tested on: NALL-1
[16] = tested on: NALM-16
[17] = tested on: NALM-6
[18] = tested on: PF-382
[19] = tested on: RPMI-8402
[20] = tested on: SUP-B15
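Note: ALL cell lines in 384-well plates, five doses spanning 10,000-fold, each plate scaled between vehicle and 100 µmol/L benzalkonium chloride controls, sDSS an adapted area-under-curve metric.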

In the case of `CC(C)Oc1ccc(-c2nn([C@@H](C)c3oc4ccc(F)cc4c(=O)c3-c3cccc(F)c3)c3ncnc(N)c23)cc1F` [TGR-1202] (top concentration 2500 nM), the “selective drug sensitivity score” value [1] is reported as 0.44, the “selective drug sensitivity score” value [2] is reported as 3.84 and the “selective drug sensitivity score” value [3] is reported as -2.06. For the same molecule, the “selective drug sensitivity score” value [4] was -2.56, the “selective drug sensitivity score” value [5] was -1.96 and the “selective drug sensitivity score” value [6] was 2.74. The “selective drug sensitivity score” value [7] was 3.04, the “selective drug sensitivity score” value [8] was -2.56 and the “selective drug sensitivity score” value [9] was -2.56. The “selective drug sensitivity score” value [10] was -2.36, the “selective drug sensitivity score” value [11] was -2.36 and the “selective drug sensitivity score” value [12] was 1.44. For the same molecule, the “selective drug sensitivity score” value [13] was -1.76, the “selective drug sensitivity score” value [14] was -2.56 and the “selective drug sensitivity score” value [15] was 1.24. For the same molecule, the “selective drug sensitivity score” value [16] was 2.24, the “selective drug sensitivity score” value [17] was -1.16 and the “selective drug sensitivity score” value [18] was -2.56. For the same molecule, the “selective drug sensitivity score” value [19] was -2.06 and the “selective drug sensitivity score” value [20] was 1.14.
With `CN(C(=O)c1ccc(F)cc1C(F)(F)F)C1CCN(c2nnc(-c3ccnn3C)c3ccccc23)CC1` [Taladegib] (top concentration 10000 nM) the “selective drug sensitivity score” value [1] was 1.88, the “selective drug sensitivity score” value [2] was -0.52 and the “selective drug sensitivity score” value [3] was -0.92. The “selective drug sensitivity score” value [4] was -1.12, the “selective drug sensitivity score” value [5] was -1.12 and the “selective drug sensitivity score” value [6] was -1.12. For the same molecule, the “selective drug sensitivity score” value [7] was 2.78, the “selective drug sensitivity score” value [8] was 7.08 and the “selective drug sensitivity score” value [9] was 2.78. The “selective drug sensitivity score” value [10] was -0.92, the “selective drug sensitivity score” value [11] was 11 and the “selective drug sensitivity score” value [12] was -1.12. The “selective drug sensitivity score” value [13] was 4.58, the “selective drug sensitivity score” value [14] was -0.12 and the “selective drug sensitivity score” value [15] was -1.12. For the same molecule, the “selective drug sensitivity score” value [16] was 0.88, the “selective drug sensitivity score” value [17] was 2.68 and the “selective drug sensitivity score” value [18] was 0.78. The “selective drug sensitivity score” value [19] was 2.38 and the “selective drug sensitivity score” value [20] was 3.78.
With `COc1cc(Nc2ncc(F)c(Nc3ccc4c(n3)NC(=O)C(C)(C)O4)n2)cc(OC)c1OC` [Tamatinib] (top concentration 10000 nM) the “selective drug sensitivity score” value [1] was 1.28, the “selective drug sensitivity score” value [2] was 9.98 and the “selective drug sensitivity score” value [3] was 4.78. The “selective drug sensitivity score” value [4] was -5.42, the “selective drug sensitivity score” value [5] was -1.22 and the “selective drug sensitivity score” value [6] was -1.82. For the same molecule, the “selective drug sensitivity score” value [7] was -2.92, the “selective drug sensitivity score” value [8] was -5.42 and the “selective drug sensitivity score” value [9] was -5.42. The “selective drug sensitivity score” value [10] was -2.92, the “selective drug sensitivity score” value [11] was -5.42 and the “selective drug sensitivity score” value [12] was 2.68. For the same molecule, the “selective drug sensitivity score” value [13] was 1.28, the “selective drug sensitivity score” value [14] was -5.42 and the “selective drug sensitivity score” value [15] was -3.82. For the same molecule, the “selective drug sensitivity score” value [16] was -1.42, the “selective drug sensitivity score” value [17] was -5.42 and the “selective drug sensitivity score” value [18] was -4.32. For the same molecule, the “selective drug sensitivity score” value [19] was 0.68 and the “selective drug sensitivity score” value [20] was -0.62.
In the case of `Nc1cc(F)ccc1NC(=O)c1ccc(CNC(=O)/C=C/c2cccnc2)cc1` [Tucidinostat] (top concentration 10000 nM), the “selective drug sensitivity score” value [1] is reported as 6.34, the “selective drug sensitivity score” value [2] is reported as 2.94 and the “selective drug sensitivity score” value [3] is reported as 2.14. The “selective drug sensitivity score” value [4] was 2.74, the “selective drug sensitivity score” value [5] was 5.34 and the “selective drug sensitivity score” value [6] was 1.04. The “selective drug sensitivity score” value [7] was -2.06, the “selective drug sensitivity score” value [8] was 3.44 and the “selective drug sensitivity score” value [9] was 1.34. For the same molecule, the “selective drug sensitivity score” value [10] was 8.74, the “selective drug sensitivity score” value [11] was 8.84 and the “selective drug sensitivity score” value [12] was 7.24. For the same molecule, the “selective drug sensitivity score” value [13] was 3.94, the “selective drug sensitivity score” value [14] was -0.76 and the “selective drug sensitivity score” value [15] was -2.76. The “selective drug sensitivity score” value [16] was -0.36, the “selective drug sensitivity score” value [17] was -0.36 and the “selective drug sensitivity score” value [18] was 0.74. The “selective drug sensitivity score” value [19] was 2.94 and the “selective drug sensitivity score” value [20] was 5.34.
For `CN[C@@H]1C[C@H]2O[C@@](C)([C@@H]1OC)n1c3ccccc3c3c4c(c5c6ccccc6n2c5c31)C(=O)N[C@H]4O` [UCN-01] (top concentration 10000 nM), the “selective drug sensitivity score” value [1] was 12.9, the “selective drug sensitivity score” value [2] was 8.64 and the “selective drug sensitivity score” value [3] was 9.34. For the same molecule, the “selective drug sensitivity score” value [4] was 11.8, the “selective drug sensitivity score” value [5] was 8.94 and the “selective drug sensitivity score” value [6] was 7.44. For the same molecule, the “selective drug sensitivity score” value [7] was 2.94, the “selective drug sensitivity score” value [8] was 6.04 and the “selective drug sensitivity score” value [9] was 0.34. The “selective drug sensitivity score” value [10] was 6.74, the “selective drug sensitivity score” value [11] was 2.84 and the “selective drug sensitivity score” value [12] was 9.34. For the same molecule, the “selective drug sensitivity score” value [13] was 1.54, the “selective drug sensitivity score” value [14] was 3.74 and the “selective drug sensitivity score” value [15] was 0.94. For the same molecule, the “selective drug sensitivity score” value [16] was 0.74, the “selective drug sensitivity score” value [17] was 4.94 and the “selective drug sensitivity score” value [18] was 5.44. The “selective drug sensitivity score” value [19] was 5.24 and the “selective drug sensitivity score” value [20] was 2.64.
With `CC(C)Nc1cc(-c2c[nH]c(C(=O)N[C@H](CO)c3cccc(Cl)c3)c2)c(Cl)cn1` [Ulixertinib] (top concentration 10000 nM) the “selective drug sensitivity score” value [1] was 1.62, the “selective drug sensitivity score” value [2] was 6.72 and the “selective drug sensitivity score” value [3] was 1.32. For the same molecule, the “selective drug sensitivity score” value [4] was -4.38, the “selective drug sensitivity score” value [5] was -0.38 and the “selective drug sensitivity score” value [6] was 4.72. For the same molecule, the “selective drug sensitivity score” value [7] was 1.92, the “selective drug sensitivity score” value [8] was -2.68 and the “selective drug sensitivity score” value [9] was -1.08. For the same molecule, the “selective drug sensitivity score” value [10] was -0.18, the “selective drug sensitivity score” value [11] was 7.82 and the “selective drug sensitivity score” value [12] was 1.82. The “selective drug sensitivity score” value [13] was 0.32, the “selective drug sensitivity score” value [14] was 1.72 and the “selective drug sensitivity score” value [15] was 3.92. For the same molecule, the “selective drug sensitivity score” value [16] was 3.22, the “selective drug sensitivity score” value [17] was 0.12 and the “selective drug sensitivity score” value [18] was -0.28. The “selective drug sensitivity score” value [19] was -1.38 and the “selective drug sensitivity score” value [20] was 6.62.
`Cn1ncc(Cl)c1-c1cc(C(=O)N[C@H](CN)Cc2ccc(F)c(F)c2)oc1Cl` [Uprosertib] (top concentration 10000 nM) was tested, and the “selective drug sensitivity score” value [1] was 0.3, the “selective drug sensitivity score” value [2] was 9 and the “selective drug sensitivity score” value [3] was 0.7. For the same molecule, the “selective drug sensitivity score” value [4] was 18.8, the “selective drug sensitivity score” value [5] was 1.7 and the “selective drug sensitivity score” value [6] was -1.3. For the same molecule, the “selective drug sensitivity score” value [7] was 3.9, the “selective drug sensitivity score” value [8] was -1.4 and the “selective drug sensitivity score” value [9] was 5.9. The “selective drug sensitivity score” value [10] was 5.6, the “selective drug sensitivity score” value [11] was 8.3 and the “selective drug sensitivity score” value [12] was 0.7. For the same molecule, the “selective drug sensitivity score” value [13] was -1.2, the “selective drug sensitivity score” value [14] was 9.3 and the “selective drug sensitivity score” value [15] was -1.4. The “selective drug sensitivity score” value [16] was 5.4, the “selective drug sensitivity score” value [17] was 2.9 and the “selective drug sensitivity score” value [18] was 4.6. For the same molecule, the “selective drug sensitivity score” value [19] was 3.4 and the “selective drug sensitivity score” value [20] was -1.4.
`C=CC(=O)N1CC/C(=C\c2ccc(F)c([N+](=O)[O-])c2)C(=O)/C(=C/c2ccc(F)c([N+](=O)[O-])c2)C1` [VLX1570] (top concentration 10000 nM) was tested, and the “selective drug sensitivity score” value [1] was -1.02, the “selective drug sensitivity score” value [2] was 0.38 and the “selective drug sensitivity score” value [3] was -2.12. The “selective drug sensitivity score” value [4] was 2.78, the “selective drug sensitivity score” value [5] was 5.28 and the “selective drug sensitivity score” value [6] was 1.18. The “selective drug sensitivity score” value [7] was -2.52, the “selective drug sensitivity score” value [8] was -1.22 and the “selective drug sensitivity score” value [9] was -8.52. The “selective drug sensitivity score” value [10] was -1.02, the “selective drug sensitivity score” value [11] was -2.62 and the “selective drug sensitivity score” value [12] was 0.88. The “selective drug sensitivity score” value [13] was 0.68, the “selective drug sensitivity score” value [14] was -5.62 and the “selective drug sensitivity score” value [15] was -4.52. For the same molecule, the “selective drug sensitivity score” value [16] was -3.72, the “selective drug sensitivity score” value [17] was 4.08 and the “selective drug sensitivity score” value [18] was -1.72. For the same molecule, the “selective drug sensitivity score” value [19] was -6.52 and the “selective drug sensitivity score” value [20] was 1.38.
For `C[C@@H]1COC(Nc2ccc3ncnc(Nc4ccc(OCc5nccs5)c(Cl)c4)c3c2)=N1` [Varlitinib] (top concentration 10000 nM), the “selective drug sensitivity score” value [1] was 3.82, the “selective drug sensitivity score” value [2] was 5.12 and the “selective drug sensitivity score” value [3] was 0.12. For the same molecule, the “selective drug sensitivity score” value [4] was -0.18, the “selective drug sensitivity score” value [5] was -0.18 and the “selective drug sensitivity score” value [6] was -0.18. For the same molecule, the “selective drug sensitivity score” value [7] was -0.18, the “selective drug sensitivity score” value [8] was 1.92 and the “selective drug sensitivity score” value [9] was -0.18. The “selective drug sensitivity score” value [10] was -0.18, the “selective drug sensitivity score” value [11] was -0.18 and the “selective drug sensitivity score” value [12] was 4.72. The “selective drug sensitivity score” value [13] was 20.2, the “selective drug sensitivity score” value [14] was -0.18 and the “selective drug sensitivity score” value [15] was -0.18. For the same molecule, the “selective drug sensitivity score” value [16] was 0.92, the “selective drug sensitivity score” value [17] was -0.18 and the “selective drug sensitivity score” value [18] was -0.18. The “selective drug sensitivity score” value [19] was 4.92 and the “selective drug sensitivity score” value [20] was 6.82.
`CNC(=O)c1cccc(-c2ccc3c(N4CCOC[C@@H]4C)nc(N4CCOC[C@@H]4C)nc3n2)c1` [Vistusertib] (top concentration 10000 nM) was tested, and the “selective drug sensitivity score” value [1] was 15.1, the “selective drug sensitivity score” value [2] was 10 and the “selective drug sensitivity score” value [3] was 5.42. For the same molecule, the “selective drug sensitivity score” value [4] was 2.12, the “selective drug sensitivity score” value [5] was 9.12 and the “selective drug sensitivity score” value [6] was 9.02. For the same molecule, the “selective drug sensitivity score” value [7] was 5.12, the “selective drug sensitivity score” value [8] was 1.12 and the “selective drug sensitivity score” value [9] was 2.22. The “selective drug sensitivity score” value [10] was 5.02, the “selective drug sensitivity score” value [11] was 15 and the “selective drug sensitivity score” value [12] was 11.8. The “selective drug sensitivity score” value [13] was 5.12, the “selective drug sensitivity score” value [14] was 3.12 and the “selective drug sensitivity score” value [15] was -3.58. The “selective drug sensitivity score” value [16] was 2.22, the “selective drug sensitivity score” value [17] was 3.92 and the “selective drug sensitivity score” value [18] was 7.02. The “selective drug sensitivity score” value [19] was 5.52 and the “selective drug sensitivity score” value [20] was 10.7.
